Test results: the supplement of paper PMC10307832

Experiments:
Assay in all cases: relative viability (nuclei count vs DMSO), 5 days (fraction); higher = more cells survive
AZ505 + Dasatinib = compound: C1CCC(CC1)N(CCNCCC2=C3C(=C(C=C2)O)NC(=O)CO3)C(=O)CCNCCC4=CC(=C(C=C4)Cl)Cl [AZ505] + Cc1nc(Nc2ncc(C(=O)Nc3c(C)cccc3Cl)s2)cc(N2CCN(CCO)CC2)n1 [Dasatinib] (partner 0.075 µM)
How it was run: (§1)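 After 5 days of treatment, lung cancer cells in 1536-well plates were fixed and stained in a single step (final 0.05% Triton X-100, 1% formaldehyde, 1 ug/ml Hoechst) and their nuclei counted on 4× images. Treatment had been applied by pin tool the day after seeding as one drug alone or as a fixed anchor-drug dose with five library-drug doses (not always all listed) in √10 steps. Relative viability is the nuclei count of treated wells divided by that of vehicle wells, and values are medians of duplicate plates.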

Dactolisib + Crizotinib = compound: Cn1c(=O)n(-c2ccc(C(C)(C)C#N)cc2)c2c3cc(-c4cnc5ccccc5c4)ccc3ncc21 [Dactolisib] + C[C@@H](Oc1cc(-c2cnn(C3CCNCC3)c2)cnc1N)c1c(Cl)ccc(F)c1Cl [Crizotinib] (partner 1 µM)
How it was run: as §1

Dactolisib + Olaparib = compound: Cn1c(=O)n(-c2ccc(C(C)(C)C#N)cc2)c2c3cc(-c4cnc5ccccc5c4)ccc3ncc21 [Dactolisib] + O=C(c1cc(Cc2n[nH]c(=O)c3ccccc23)ccc1F)N1CCN(C(=O)C2CC2)CC1 [Olaparib] (partner 8 µM)
How it was run: as §1

AZ505 + Lapatinib = compound: C1CCC(CC1)N(CCNCCC2=C3C(=C(C=C2)O)NC(=O)CO3)C(=O)CCNCCC4=CC(=C(C=C4)Cl)Cl [AZ505] + CS(=O)(=O)CCNCc1ccc(-c2ccc3ncnc(Nc4ccc(OCc5cccc(F)c5)c(Cl)c4)c3c2)o1 [Lapatinib] (partner 2 µM)
How it was run: as §1

Cell Line	relative viability (AZ505 + Dasatinib; first compound 0.08 µM)	relative viability (AZ505 + Dasatinib; first compound 0.253 µM)	relative viability (AZ505 + Dasatinib; first compound 0.8 µM)	relative viability (AZ505 + Dasatinib; first compound 2.53 µM)	relative viability (AZ505 + Dasatinib; first compound 8 µM)	relative viability (Dactolisib + Crizotinib; first compound 0.002 µM)	relative viability (Dactolisib + Crizotinib; first compound 0.006325 µM)	relative viability (Dactolisib + Crizotinib; first compound 0.02 µM)	relative viability (Dactolisib + Crizotinib; first compound 0.06325 µM)	relative viability (Dactolisib + Crizotinib; first compound 0.2 µM)	relative viability (Dactolisib + Olaparib; first compound 0.002 µM)	relative viability (Dactolisib + Olaparib; first compound 0.006325 µM)	relative viability (Dactolisib + Olaparib; first compound 0.02 µM)	relative viability (Dactolisib + Olaparib; first compound 0.06325 µM)	relative viability (Dactolisib + Olaparib; first compound 0.2 µM)	relative viability (AZ505 + Lapatinib; first compound 0.08 µM)	relative viability (AZ505 + Lapatinib; first compound 0.253 µM)	relative viability (AZ505 + Lapatinib; first compound 0.8 µM)	relative viability (AZ505 + Lapatinib; first compound 2.53 µM)	relative viability (AZ505 + Lapatinib; first compound 8 µM)
NCI-H2087	0.832	0.669	0.808	0.551	0.884	0.952	0.85	1.04	0.63	0.785	0.719	0.474	0.631	0.197	0.243	0.856	1.01	0.983	1.31	0.958
HCC-366	0.604	0.625	0.78	0.527	0.608	0.409	0.574	0.531	0.302	0.168	0.243	0.356	0.38	0.166	0.142	1.01	1.01	0.903	0.986	1.06
NCI-H727	0.28	0.274	0.372	–	0.504	0.915	0.671	0.666	0.354	0.374	–	0.79	0.874	0.699	0.629	0.702	0.765	0.743	0.66	0.781
LU99A	–	0.475	0.618	0.48	0.536	0.548	0.446	0.335	0.272	0.231	0.208	0.232	0.216	0.181	0.172	0.915	0.965	0.931	1.04	1.01
NCI-H647	0.233	0.104	0.158	0.194	0.162	1.21	0.848	0.5	0.133	0.124	0.54	0.349	0.315	0.129	0.0846	1.03	1.11	1.01	1.03	1.17
HCC-78	0.336	0.411	0.333	0.445	0.425	0.316	0.331	0.285	0.266	0.222	0.856	0.94	0.669	0.452	0.336	–	0.643	0.645	1.2	0.86
NCI-H1755	0.393	0.51	0.43	0.442	0.474	0.931	0.802	0.823	0.596	0.438	0.987	0.886	0.86	0.733	0.476	1.02	0.99	1.09	1.09	1.03
NCI-H3122	0.729	0.829	0.806	0.661	0.899	0.284	0.297	0.228	0.213	0.217	0.564	0.557	0.659	0.629	0.641	1.01	1.03	1.04	0.981	1.09
PC-14	0.219	0.241	0.296	0.264	0.227	0.918	0.932	0.953	0.603	0.391	0.337	0.505	0.359	0.141	0.0895	0.316	0.296	0.336	0.411	0.319
NCI-H2347	0.254	–	–	–	0.279	0.836	0.619	0.613	0.46	0.464	0.693	0.54	0.531	0.471	0.407	0.555	0.64	0.607	0.508	0.772
NCI-H2228	0.447	0.421	0.51	0.457	0.443	0.601	0.283	0.297	0.252	0.175	1.01	0.486	0.326	0.177	0.104	1.09	0.957	0.939	0.885	1.11
EKVX	0.556	0.543	0.539	0.494	0.504	0.971	0.879	0.923	0.686	0.341	0.661	0.867	0.861	0.469	0.331	0.225	0.184	0.175	0.185	0.214
HOP-62	0.528	0.644	0.484	0.598	0.64	1.06	1.01	0.923	0.505	0.472	0.378	0.464	0.542	0.298	0.36	0.878	1.22	1.08	1.03	0.942
NCI-H2126	0.578	0.579	0.601	0.646	0.586	1.07	1.03	0.98	0.713	0.537	0.975	0.895	0.878	0.514	0.44	0.758	0.78	0.767	0.639	0.701
NCI-H358	0.226	0.145	0.192	0.115	0.167	0.702	0.705	0.738	0.391	0.189	0.675	0.557	0.552	0.478	0.169	0.408	0.474	0.416	0.371	0.435
EPLC-272H	–	0.371	0.315	0.265	0.344	0.949	0.564	0.647	0.494	0.483	0.807	0.486	0.512	0.284	0.232	0.785	0.817	0.867	0.871	0.956

Cell Line	relative viability (AZ505 + Dasatinib; first compound 0.08 µM)	relative viability (AZ505 + Dasatinib; first compound 0.253 µM)	relative viability (AZ505 + Dasatinib; first compound 0.8 µM)	relative viability (AZ505 + Dasatinib; first compound 2.53 µM)	relative viability (AZ505 + Dasatinib; first compound 8 µM)	relative viability (Dactolisib + Crizotinib; first compound 0.002 µM)	relative viability (Dactolisib + Crizotinib; first compound 0.006325 µM)	relative viability (Dactolisib + Crizotinib; first compound 0.02 µM)	relative viability (Dactolisib + Crizotinib; first compound 0.06325 µM)	relative viability (Dactolisib + Crizotinib; first compound 0.2 µM)	relative viability (Dactolisib + Olaparib; first compound 0.002 µM)	relative viability (Dactolisib + Olaparib; first compound 0.006325 µM)	relative viability (Dactolisib + Olaparib; first compound 0.02 µM)	relative viability (Dactolisib + Olaparib; first compound 0.06325 µM)	relative viability (Dactolisib + Olaparib; first compound 0.2 µM)	relative viability (AZ505 + Lapatinib; first compound 0.08 µM)	relative viability (AZ505 + Lapatinib; first compound 0.253 µM)	relative viability (AZ505 + Lapatinib; first compound 0.8 µM)	relative viability (AZ505 + Lapatinib; first compound 2.53 µM)	relative viability (AZ505 + Lapatinib; first compound 8 µM)
PC-3 [JPC-3]	0.848	0.968	0.864	0.937	0.858	1.08	0.979	0.916	0.874	0.768	1.17	1.07	1.21	1.02	0.963	0.456	0.455	0.476	0.426	0.495
NCI-H650	0.425	0.408	0.447	0.547	0.452	0.627	0.747	0.752	0.519	0.393	0.552	0.378	0.437	0.312	0.195	0.849	0.925	1.18	1.06	1.06
NCI-H838	0.233	0.273	0.298	0.28	0.308	0.798	0.586	0.534	0.275	0.216	0.924	0.657	0.43	0.273	0.208	0.941	0.8	0.893	0.894	0.903
COR-L 105	0.383	0.352	0.318	0.342	0.367	0.85	0.874	0.561	0.645	0.283	0.629	0.744	0.76	0.592	0.367	0.344	0.302	0.349	0.339	0.372
NCI-H2405	0.187	0.151	0.133	0.203	0.176	0.758	0.867	0.849	0.541	0.38	0.866	0.86	0.858	0.5	0.409	0.741	0.766	0.773	0.822	0.893
NCI-H661	0.862	0.932	0.731	0.958	0.964	0.987	0.979	1.14	0.779	0.613	0.706	0.656	0.771	0.504	0.434	0.468	0.502	0.447	0.477	0.499
NCI-H1915	0.28	0.298	0.269	0.275	0.337	0.889	0.903	0.916	0.713	0.529	0.254	0.253	0.293	0.264	0.246	1.01	1.07	0.985	1.05	1.04
CAL-12T	0.466	0.585	0.381	0.413	0.472	0.624	0.661	0.425	0.216	0.215	0.822	0.662	0.496	0.286	0.271	0.637	0.534	0.537	0.625	0.728
SK-LU-1	0.182	0.168	0.163	0.161	0.16	0.912	0.936	0.681	0.455	0.352	0.428	0.406	0.539	0.402	0.216	0.477	0.651	0.578	0.537	0.712
LXF-289	0.231	0.189	0.169	0.249	0.181	0.822	0.779	0.896	0.942	0.708	1.21	0.986	1	0.973	0.695	0.876	–	0.869	0.857	0.869
NCI-H460	0.529	0.416	0.557	0.314	0.59	1.09	0.835	0.513	0.136	0.0929	0.256	0.45	0.423	0.341	0.335	0.874	1.1	0.877	0.922	1.07
NCI-H1944	0.212	0.188	0.246	0.203	0.224	1.18	1.06	1.03	0.46	0.392	0.548	0.386	0.397	0.265	0.21	0.811	0.8	0.9	0.76	0.759
NCI-H2009	0.221	0.267	0.219	0.237	0.242	1.01	1.05	1.02	0.986	0.566	0.656	0.692	0.65	0.759	0.312	0.864	0.928	1.07	0.665	0.86
201T	0.589	0.548	0.627	0.601	0.535	1.03	1.04	0.998	0.977	0.913	0.833	0.824	0.849	0.782	0.54	1	1.04	0.957	1.04	1.01
NCI-H23	0.721	–	0.722	0.797	0.877	0.455	0.408	0.614	0.357	0.257	0.266	0.254	0.239	0.223	0.161	1.02	–	0.984	1.23	1.15
LOU-NH91	0.536	0.537	0.452	0.53	0.601	0.718	0.715	0.698	0.593	0.515	0.832	0.901	0.886	0.608	0.632	0.753	0.724	0.761	0.84	0.779
